Results published in patent US20230399342A1 (Incyte Corporation, priority 2022, published 2023).

What was measured:
DGKζ = DGKζ (Homo sapiens (Human), UniProt Q13574); assay: In vitro DGKζ inhibition assay (ADP-Glo); format: biochemical; conditions: His-tagged human recombinant enzyme, 0.4 nM DGK, 30 μM ATP, 20 μM DLG, 90 minute incubation
Procedure, shortened: (§1)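 His-tagged human DGKα (0.1 nM, 50 μM ATP) or DGKζ (0.4 nM, 30 μM ATP), each with 20 μM DLG, in Tris pH 7.5 buffer with CHAPS, Mg2+, Ca2+.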

DGKα = DGKα (Homo sapiens (Human), UniProt P23743); assay: In vitro DGKα inhibition assay (ADP-Glo); format: biochemical; conditions: His-tagged human recombinant enzyme, 0.1 nM DGKα, 50 μM ATP, 20 μM DLG, 90 minute incubation
Procedure, shortened: as §1

DGKζ, sequence (Q13574 whole entry): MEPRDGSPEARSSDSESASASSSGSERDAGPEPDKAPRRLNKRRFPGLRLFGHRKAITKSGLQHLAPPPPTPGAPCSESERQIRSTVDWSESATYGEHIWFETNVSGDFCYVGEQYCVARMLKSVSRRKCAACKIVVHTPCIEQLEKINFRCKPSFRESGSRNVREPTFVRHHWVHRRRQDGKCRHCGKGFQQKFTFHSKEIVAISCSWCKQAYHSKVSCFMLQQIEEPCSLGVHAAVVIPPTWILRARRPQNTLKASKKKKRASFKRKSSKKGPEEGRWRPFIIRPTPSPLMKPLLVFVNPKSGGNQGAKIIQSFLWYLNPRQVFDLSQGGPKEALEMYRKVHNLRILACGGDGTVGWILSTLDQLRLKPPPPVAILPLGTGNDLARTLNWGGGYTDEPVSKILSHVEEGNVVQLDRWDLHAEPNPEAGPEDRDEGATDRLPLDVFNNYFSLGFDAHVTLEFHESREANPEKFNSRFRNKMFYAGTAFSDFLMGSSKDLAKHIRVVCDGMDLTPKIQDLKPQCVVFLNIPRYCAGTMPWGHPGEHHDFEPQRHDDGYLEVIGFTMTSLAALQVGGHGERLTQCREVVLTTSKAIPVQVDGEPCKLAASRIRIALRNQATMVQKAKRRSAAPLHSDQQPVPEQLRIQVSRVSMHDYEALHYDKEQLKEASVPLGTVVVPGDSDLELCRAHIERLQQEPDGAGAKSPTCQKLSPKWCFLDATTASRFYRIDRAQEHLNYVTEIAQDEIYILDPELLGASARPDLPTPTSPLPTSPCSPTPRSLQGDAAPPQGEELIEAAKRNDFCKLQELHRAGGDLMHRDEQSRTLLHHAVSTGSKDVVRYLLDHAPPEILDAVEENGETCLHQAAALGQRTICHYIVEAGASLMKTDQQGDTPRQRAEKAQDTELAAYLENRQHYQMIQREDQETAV
DGKα, sequence (P23743 whole entry): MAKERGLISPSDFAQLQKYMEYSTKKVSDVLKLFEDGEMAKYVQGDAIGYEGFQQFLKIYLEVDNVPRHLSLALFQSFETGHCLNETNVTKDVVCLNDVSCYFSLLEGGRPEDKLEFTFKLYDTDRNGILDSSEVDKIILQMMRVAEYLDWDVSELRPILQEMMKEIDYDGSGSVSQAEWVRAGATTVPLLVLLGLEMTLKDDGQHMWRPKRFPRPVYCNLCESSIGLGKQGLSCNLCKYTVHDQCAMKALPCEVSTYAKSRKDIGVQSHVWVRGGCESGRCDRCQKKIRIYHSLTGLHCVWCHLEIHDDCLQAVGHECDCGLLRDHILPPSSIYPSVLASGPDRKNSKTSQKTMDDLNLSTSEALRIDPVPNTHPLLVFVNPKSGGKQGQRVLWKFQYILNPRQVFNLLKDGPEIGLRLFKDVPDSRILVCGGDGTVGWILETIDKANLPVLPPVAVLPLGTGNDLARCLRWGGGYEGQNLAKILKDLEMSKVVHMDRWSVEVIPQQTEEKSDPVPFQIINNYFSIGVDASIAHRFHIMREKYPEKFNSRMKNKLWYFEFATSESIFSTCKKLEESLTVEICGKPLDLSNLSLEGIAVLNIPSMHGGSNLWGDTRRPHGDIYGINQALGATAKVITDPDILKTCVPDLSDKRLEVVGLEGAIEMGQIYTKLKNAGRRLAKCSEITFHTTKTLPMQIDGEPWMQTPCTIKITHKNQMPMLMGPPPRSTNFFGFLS

Row | IC50 (DGKζ) [nM] | IC50 (DGKα) [nM] | Structure (SMILES)
1 | ≤ 20 | ≤ 20 | Cc1nc2c(N3C[C@@H](C)N(C(c4ccc(C(F)F)c(F)c4)C4CC(F)(F)C4)C[C@@H]3C)nc3nncn3c2n1C[C@@H]1CCCO1 (stereo partly drawn) [Example 135, 4-((2S,5R)-4-((3,3-Difluorocyclobutyl)(4-(difluoromethyl)-3-fluorophenyl)methyl)-2,5-dimethylpiperazin-1-yl)-2-methyl-1-(((S)-tetrahydrofuran-2-yl)methyl)-1H-[1,2,4]triazolo[3,4-b]purine]
2 | ≤ 20 | ≤ 20 | CC[C@@H]1CN(c2nc3nncn3c3c2nnn3C[C@H]2CCCO2)[C@@H](C)CN1C(c1ccc(Cl)cc1)c1ccc(Cl)cc1 [Example 40, 4-((2S,5R)-4-(Bis(4-chlorophenyl)methyl)-5-ethyl-2-methylpiperazin-1-yl)-1-(((R)-tetrahydrofuran-2-yl)methyl)-1H-[1,2,3]triazolo[4,5-e][1,2,4]triazolo[4,3-a]pyrimidine]
3 | ≤ 20 | ≤ 20 | CC[C@@H]1CN(c2nc3nncn3c3c2nc(C)n3C[C@@H]2CCCO2)[C@@H](C)CN1C(c1ccc(F)cc1)c1ccc(C#N)cc1 (stereo partly drawn) [Example 133, 4-(((2R,5S)-2-Ethyl-5-methyl-4-(2-methyl-1-(((S)-tetrahydrofuran-2-yl)methyl)-1H-[1,2,4]triazolo[3,4-b]purin-4-yl)piperazin-1-yl)(4-fluorophenyl)methyl)benzonitrile]
4 | ≤ 20 | ≤ 20 | Cc1nc2c(N3C[C@@H](CO)N(C(c4ccc(Cl)cc4)c4ccc(Cl)cc4)C[C@@H]3C)nc3nncn3c2n1C[C@@H]1CCCO1 [Example 137, ((2S,5S)-1-(Bis(4-chlorophenyl)methyl)-5-methyl-4-(2-methyl-1-(((S)-tetrahydrofuran-2-yl)methyl)-1H-[1,2,4]triazolo[3,4-b]purin-4-yl)piperazin-2-yl)methanol]
5 | ≤ 20 | ≤ 20 | CC[C@H]1CN(C(c2ccc(F)cc2)c2ccc(F)cc2)[C@H](CC)CN1c1nc2nncn2c2c1ncn2CC1CC1 [Example 21, 4-((2S,5R)-4-(Bis(4-fluorophenyl)methyl)-2,5-diethylpiperazin-1-yl)-1-(cyclopropylmethyl)-1H-[1,2,4]triazolo[3,4-b]purine]
6 | ≤ 20 | ≤ 20 | Cc1nc2c(N3C[C@@H](C)N([C@@H](c4ccc(C(F)F)cc4)C(C)C)C[C@@H]3C)nc3nncn3c2n1C[C@@H]1CCCO1 [Example 74, 4-((2S,5R)-4-((R)-1-(4-(difluoromethyl)phenyl)-2-methylpropyl)-2,5-dimethylpiperazin-1-yl)-2-methyl-1-(((S)-tetrahydrofuran-2-yl)methyl)-1H-[1,2,4]triazolo[3,4-b]purine]
7 | ≤ 20 | ≤ 20 | Cc1nc2c(N3C[C@@H](C)N(C(c4ccc(Br)cc4)c4ccc(Br)cc4)C[C@@H]3C)nc3nncn3c2n1C[C@@H]1CCCO1 [Example 108, 4-((2S,5R)-4-(Bis(4-bromophenyl)methyl)-2,5-dimethylpiperazin-1-yl)-2-methyl-1-(((S)-tetrahydrofuran-2-yl)methyl)-1H-[1,2,4]triazolo[3,4-b]purine]
8 | ≤ 20 | ≤ 20 | C[C@@H]1CN(c2nc3nncn3c3c2ncn3CCN(C)C)[C@@H](C)CN1C(c1ccc(Cl)c(F)c1)C1CC(F)(F)C1 (stereo partly drawn) [Example 136, 2-(4-((2S,5R)-4-((4-Chloro-3-fluorophenyl)(3,3-difluorocyclobutyl)methyl)-2,5-dimethylpiperazin-1-yl)-1H-[1,2,4]triazolo[3,4-b]purin-1-yl)-N,N-dimethylethan-1-amine]

Row | Structure (SMILES) | IC50 (DGKζ) [nM] | IC50 (DGKα) [nM]
9 | Cc1nc2c(N3C[C@@H](C)N([C@H](c4ccc(F)cc4)c4ccc(F)c(C(F)(F)F)n4)C[C@@H]3C)nc3nncn3c2n1C[C@@H]1CCCO1 (single isomer, unassigned) [Example 104] | ≤ 20 | ≤ 20
